ChEMBL document CHEMBL1148294, “Synthesis, in vitro evaluation, and antileishmanial activity of water-soluble prodrugs of buparvaquone” (J Med Chem, 2004)
Converted amounts (≈) assume the structure as drawn.

What was measured:
[1] = Half-life for rate of hydrolysis was determined at pH 3; assay type: ADME; conditions: buffer
[2] = Aqueous Solubility at pH 5; assay type: physicochemical
[3] = Distribution Coefficient at pH 7.4; assay type: physicochemical; conditions: octanol/water
[4] = tested on: Leishmania major; assay: Effective dose was determined for intracellular amastigotes of Leishmania major JISH118 at 72 hr in infected macrophages at 34C (experiment 1); assay type: functional; conditions: read-out: ED50 (the source's name)
[5] = tested on: Leishmania amazonensis; assay: Effective dose was determined for extracellular promastigotes of Leishmania amazonensis LV81 at 72 h; assay type: functional; conditions: read-out: ED50 (the source's name)
[6] = tested on: Leishmania amazonensis; assay: Effective dose was determined for intracellular amastigotes of Leishmania amazonensis LV81 at 72 hr in infected macrophages at 34C (experiment 1); assay type: functional; conditions: read-out: ED50 (the source's name)
[7] = tested on: Leishmania major; assay: Effective dose was determined for extracellular promastigotes of Leishmania major JISH118 at 72 h; assay type: functional; conditions: read-out: ED50 (the source's name)
[8] = tested on: Leishmania major; assay: Effective dose was determined for intracellular amastigotes of Leishmania major JISH118 at 72 hr in infected macrophages at 34 degree C (experiment 2); conditions: read-out: ED50 (the source's name)
[9] = Ionization constant (pKa) was determined; assay type: physicochemical
[10] = Half-life for rate of hydrolysis was determined in human skin homogenate (pH 7.4); assay type: ADME, tissue-based, Zone of skin
[11] = tested on: Leishmania mexicana; assay: Effective dose was determined for intracellular amastigotes of Leishmania mexicana LV4 at 72 hr in infected macrophages at 34 degree C (experiment 2); conditions: read-out: ED50 (the source's name)
[12] = Half-life for rate of hydrolysis was determined at pH 7.4; assay type: ADME; conditions: buffer
[13] = Distribution Coefficient at pH 3; assay type: physicochemical; conditions: octanol/water
[14] = tested on: Leishmania mexicana; assay: Effective dose was determined for intracellular amastigotes of Leishmania mexicana LV4 at 72 hr in infected macrophages at 34C (experiment 1); assay type: functional; conditions: read-out: ED50 (the source's name)
[15] = tested on: Leishmania mexicana; assay: Effective dose was determined for extracellular promastigotes of Leishmania mexicana LV4 at 72 h; assay type: functional; conditions: read-out: ED50 (the source's name)
[16] = Distribution Coefficient at pH 5; assay type: physicochemical; conditions: octanol/water
[17] = tested on: Leishmania donovani; assay: Effective dose was determined for extracellular promastigotes of Leishmania donovani L82 at 72 h; assay type: functional; conditions: read-out: ED50 (the source's name)
[18] = Aqueous Solubility at pH 7.4; assay type: physicochemical
[19] = tested on: Leishmania donovani; assay: Effective dose was determined for intracellular amastigotes of Leishmania donovani L82 at 72 hr in infected macrophages at 37C (experiment 1); conditions: read-out: ED50 (the source's name)
[20] = tested on: Leishmania aethiopica; assay: Effective dose was determined for extracellular promastigotes of Leishmania aethiopica Khartoum at 72 h; assay type: functional; conditions: read-out: ED50 (the source's name)
[21] = tested on: Leishmania donovani; assay: Effective dose was determined for intracellular amastigotes of Leishmania donovani L82 at 72 hr in infected macrophages at 37 degree C (experiment 2); assay type: functional; conditions: read-out: ED50 (the source's name)
[22] = Half-life for rate of hydrolysis was determined at pH 5; assay type: ADME; conditions: buffer
[23] = tested on: Leishmania aethiopica; assay: Effective dose was determined for intracellular amastigotes of Leishmania aethiopica Khartoum at 72 hr in infected macrophages at 34C (experiment 1); assay type: functional; conditions: read-out: ED50 (the source's name)
[24] = tested on: Leishmania panamensis; assay: Effective dose was determined for intracellular amastigotes of Leishmania panamensis BOYNTON at 72 hr in infected macrophages at 34C (experiment 1); assay type: functional; conditions: read-out: ED50 (the source's name)
[25] = tested on: Leishmania aethiopica; assay: Effective dose was determined for intracellular amastigotes of Leishmania aethiopica Khartoum at 72 hr in infected macrophages at 34 degree C (experiment 2); conditions: read-out: ED50 (the source's name)
[26] = tested on: Leishmania panamensis; assay: Effective dose was determined for extracellular promastigotes of Leishmania panamensis BOYNTON at 72 h; assay type: functional; conditions: read-out: ED50 (the source's name)
[27] = Aqueous Solubility at pH 3; assay type: physicochemical
[28] = tested on: Leishmania panamensis; assay: Effective dose was determined for intracellular amastigotes of Leishmania panamensis BOYNTON at 72 h in infected macrophages at 34 degree C (experiment 2); conditions: read-out: ED50 (the source's name)
[29] = tested on: Leishmania mexicana; assay: Effective dose was determined for extracellular promastigotes of Leishmania mexicana BEL21 at 72 h; assay type: functional; conditions: read-out: ED50 (the source's name)
[30] = tested on: alkaline phosphatase; assay: Half-life for rate of hydrolysis was determined in alkaline phosphatase solution (pH 7.4); assay type: ADME

solubility [2] [µg/mL] | EC50 [4] [nM] | EC50 [5] [nM] | EC50 [6] [nM] | EC50 [7] [nM] | EC50 [8] [nM] | pKa [9] | EC50 [11] [nM] | logD [13] | EC50 [14] [nM] | EC50 [15] [nM] | EC50 [17] [nM] | solubility [18] [µg/mL] | EC50 [19] [nM] | EC50 [20] [nM] | EC50 [21] [nM] | EC50 [23] [nM] | EC50 [24] [nM] | EC50 [25] [nM] | EC50 [26] [nM] | also measured | SMILES
> 3500 | 1370 | 24 | 15700 | 64 | 6270 | 2.68 | 4030 | 1.87 | 7030 | 39 | 9 | > 3500 | 4120 | 122 | 4310 | 2330 | 555 | 7350 | 124 | half-life [1]: 72 h; logD ([3]; read-out: logD): 0.47; half-life [10]: 8.7 h; half-life [12]: 17 h; logD [16]: 1.27; half-life [22]: 50 h; solubility [27]: > 3500 µg/mL; EC50 [28]: 2060 nM; EC50 [29]: 24 nM; half-life [30]: 1.2 min | CC(C)(C)C1CCC(CC2=C(OP(=O)(O)O)C(=O)c3ccccc3C2=O)CC1 (stereo not drawn)
> 3500 | 810 | 7 | 8810 | 12 | 1890 | 2.28 | 2510 | 2.96 | 2580 | 10 | 3 | > 3500 | 1250 | 57 | 1220 | 1660 | < 1120 | 3990 | 120 | half-life [1]: 97 h; logD [3]: 1.16; half-life [10]: 0.175 h; half-life [12]: 0.5 h; logD [16]: 1.83; half-life [22]: 8 h; solubility [27]: > 3500 µg/mL; EC50 [28]: 1190 nM; EC50 [29]: 5 nM; half-life [30]: 3.8 min | CC(C)(C)C1CCC(CC2=C(OCOP(=O)(O)O)C(=O)c3ccccc3C2=O)CC1 (stereo not drawn)
< 0.03 | 434 | 4 | 5500 | 1 | 1800 | 5.7 | 1250 | 7.02 | 1440 | 4 | 6 | 0.03 (≈ 9.19e-05 mM) | 480 | 13 | 430 | 633 | 370 | 3640 | 42 | solubility [27]: < 0.03 µg/mL; EC50 [28]: 923 nM; EC50 [29]: 2 nM | CC(C)(C)[C@H]1CC[C@H](CC2=C(O)C(=O)c3ccccc3C2=O)CC1 [BUPARVAQUONE]
